The values that follow come from patent US5866575A, “Method of inhibiting HIV integrase” (Lundblad; Leif J. I., priority 1994, dated 1999).

Data set [1] has as its system rats. The data set is described as follows: Acute toxicity. The data set is classed as in vivo.
Data set [2] can be described thus: General toxicity after repeated administration, rats. As to conditions: rat, in vivo, iv, for 28 days, read-out: NOEL (no observable effect level) i.v. The text has this: (§1) General toxicity after repeated administration NOEL (no observable effect level)
The nature of data set [3]: General toxicity after repeated administration, rabbits. To be noted: rabbit, in vivo, topical or ocular, dermal, for 28 days, repeated administration (except for local toxicity), read-out: NOEL (no observable effect level) dermal.
Text: as §1

Each structure is given as a SMILES string.

With `Cc1cc2nc3c4ccccc4n(CCN(C)C)c3nc2cc1C` [compound II, 2,3-dimethyl-6-(N,N-dimethylaminoethyl)-6H-indoloquinoxaline], the LD i.v. in data set [1] (i.v.) is more than 100 mg/kg. In data set [1] (p.o.), this molecule yielded an LD p.o. of more than 800 mg/kg. Moreover, the NOAEL at 672 h was 12.5 mg/kg in data set [2] and 200 mg/kg in data set [3].
